Test results taken from US9095136B2, “2-IODO imidazole-derivatives” (BAYER INTELLECTUAL PROPERTY GMBH, priority 2011, dated 2015).

What was measured:
Fusarium graminearum = type: in vivo; conditions: barley (heading), protective, 500 ppm, evaluation 5 days after inoculation
[1] = tested on: Fusarium nivale (var. majus); assay: Example M: Fusarium nivale (var. majus) test (wheat)/protective; type: in vivo; conditions: protective, 500 ppm, evaluation 5 days after inoculation
Method: (§1) Solvent: 49 parts by weight of N,N-dimethylacetamide Emulsifier: 1 part by weight of alkylaryl polyglycol ether To produce a suitable preparation of active compound, 1 part by weight of active compound is mixed with the stated amounts of solvent and emulsifier, and the concentrate is diluted with water to the desired concentration. To test for protective activity, young plants are sprayed with the preparation of active compound at the stated application rate. After the spray coating has dried on, the plants are sprayed with a spore suspension of Fusarium nivale (var. majus).

Phytophthora infestans = type: in vivo; conditions: tomato, preventative, 500 ppm, evaluation 5 days after inoculation
Pyrenophora teres [2] = assay: Example R: preventative in vivo test with Pyrenophora teres (net blotch on barley); conditions: 500 ppm, evaluation 12 days after inoculation
Method: The active compounds tested are prepared by homogenization in a mixture of acetone/Tween/DMSO and then diluted with water to the desired active compound concentration. Barley plants (cultivar “Plaisant”), sown in a 50/50 peat/pozzolana soil substrate and cultivated at 22° C. (12 h)/20° C. (12 h), are treated at the 1-leaf stage (height 10 cm) by spraying with the active compound, prepared as above. As a control, plants are treated with the mixture of acetone/Tween/DMSO/water without the active compound. After 24 hours, the plants are inoculated by spraying the leaves with an aqueous suspension of Pyrenophora teres spores.

Sphaerotheca fuliginea = assay: Example B: Sphaerotheca test (cucumber)/protective; type: in vivo; conditions: protective, 500 ppm, evaluation 7 days after inoculation
Method: Solvent: 49 parts by weight of N,N-dimethylformamide Emulsifier: 1 part by weight of alkylaryl polyglycol ether To produce a suitable preparation of active compound, 1 part by weight of active compound is mixed with the stated amounts of solvent and emulsifier, and the concentrate is diluted with water to the desired concentration. To test for protective activity, young cucumber plants are sprayed with the preparation of active compound at the stated application rate. 1 day after the treatment, the plants are inoculated with a spore suspension of Sphaerotheca fuliginea. The plants are then placed in a greenhouse at 70% relative air humidity and a temperature of 23° C.

Venturia inaequalis = assay: Example D: Venturia test (apple)/protective; type: in vivo; conditions: protective, 100 ppm, evaluation 10 days after inoculation
Method: (§2) Solvent: 24.5 parts by weight of acetone • 24.5 parts by weight of dimethylacetamide Emulsifier: 1 part by weight of alkylaryl polyglycol ether To produce a suitable preparation of active compound, 1 part by weight of active compound is mixed with the stated amounts of solvent and emulsifier, and the concentrate is diluted with water to the desired concentration. To test for protective activity, young plants are sprayed with the preparation of active compound at the stated application rate. […] The plants are then placed in a greenhouse at about 21° C. and a relative atmospheric humidity of about 90%.

Leptosphaeria nodorum = assay: Example H: Leptosphaeria nodorum test (wheat)/protective; type: in vivo; conditions: protective, 500 ppm, evaluation 8 days after inoculation
Method: as §1, with “Leptosphaeria nodorum.” for “Fusarium nivale (var. majus).”

Pyrenophora teres [3] = assay: Example K: Pyrenophora teres test (barley)/protective; type: in vivo; conditions: protective, 500 ppm, evaluation 8 days after inoculation
Method: as §1, with “Pyrenophora teres.” for “Fusarium nivale (var. majus).”

[4] = log P by HPLC on reversed-phase columns (EEC directive 79/831 Annex V.A8); type: physicochemical
Method: The log P values were measured according to EEC directive 79/831 Annex V.A8 by HPLC (High Performance Liquid Chromatography) on reversed-phase columns, using the methods below: […] Calibration was carried out using unbranched alkan-2-ones (having from 3 to 16 carbon atoms) with known log P values (the log P values were determined by the retention times using linear interpolation between two successive alkanones). The lambda maX values were determined in the maxima of the chromatographic signals using the UV spectra from 200 nm to 400 nm.

Uromyces appendiculatus = assay: Example Y: Uromyces test (beans)/protective, comparison; type: in vivo; conditions: protective, application rate 10 ppm, evaluation 10 days after inoculation
Method: as §2, with “Solvents:” for “Solvent:”

Septoria tritici = assay: Example I: Septoria tritici test (wheat)/protective; type: in vivo; conditions: protective, 500 ppm, evaluation 21 days after inoculation
Method: as §1, with “Septoria tritici.” for “Fusarium nivale (var. majus).”

OC(Cc1ccccc1Cl)(Cn1ccnc1I)C1(Cl)CC1 (stereo not drawn) [Example 1, 2-(1-chlorocyclopropyl)-1-(2-chlorophenyl)-3-(2-iodo-1H-imidazol-1-yl)propan-2-ol]
Eff. % (Fusarium graminearum): 100%
Eff. % [1]: 100%
Efficacy % (Phytophthora infestans): 100%
Efficacy % (Pyrenophora teres [2]): 100%
Eff. % (Sphaerotheca fuliginea): 80%
Eff. % (Venturia inaequalis): 100%
Eff. % (Leptosphaeria nodorum): 100%
Eff. % (Pyrenophora teres [3]): 100%
chromatographic logP ([4]; pH 2.7, logP): 2.35
chromatographic logP ([4]; pH 7.8, logP): 3.38
Efficacy in % (Uromyces appendiculatus): 100%
Eff. % (Septoria tritici): 100%
